From patent publication US9365619B2, “IgG-binding peptide and method for detecting and purifying IgG using same” (Otsuka Chemical Co., Ltd., priority 2011, dated 2016)
Like-named read-outs stand apart in the source and are kept apart here. Bridge positions count the residues as written; N and C are the ends. Peptide text beside a SMILES is read from it.

Biological target: human IgG
Assay: Surface plasmon resonance (SPR) analysis of synthetic peptide binding to human IgG
Details: for affinity compared with the original peptide, in words: compared with GFc-C35-3/15; for fold increase in affinity (fold decrease in Kd value): relative to original peptide GFc-C35-3/15
Procedure: In order to narrow down the amino acid region to be studied, a peptide in which one amino acid was deleted from each end of GFc-C35 (GFc-C35-2/16) and a peptide in which two amino acids were deleted from each end of CFc-C35 (GFc-C35-3/15) were synthesized. Among these peptides, based on the GFc-C35-3/15 synthetic peptide, the effect of the introduction of amino acid mutations on affinity was evaluated. That is, the contribution of each amino acid substitution to affinity was evaluated by synthesizing peptides substituted with frequently or occasionally observed amino acids obtained from the phage libraries and subjecting the resulting synthetic peptides to binding analysis.
Based on the synthetic peptide C35A, peptides substituted with amino acids observed at high frequency in the aforementioned phage libraries were synthesized by introducing amino acid mutations, and in a similar manner to the above, their binding to human IgG was analyzed by surface plasmon resonance (SPR) analysis to evaluate the contribution of each amino acid substitution to affinity.

[1] = SPR, synthetic peptide binding to human IgG, read-out: Kd
[2] = SPR sensorgram analysis, human IgG
[3] = SPR sensorgram analysis, human IgG, read-out: affinity (Kd value)

| Kd [1] | affinity compared with the original peptide, in words | Structure (SMILES) | also measured |
| --- | --- | --- | --- |
| 69 µM | an increase in affinity | CC(C)C[C@@H]1NC(=O)[C@H](CC(N)=O)NC(=O)CNC(=O)[C@H](CC(N)=O)NC(=O)[C@H]([C@@H](C)O)NC(=O)[C@H](Cc2ccc(O)cc2)NC(=O)[C@H]([C@@H](C)O)NC(=O)[C@@H](NC(=O)[C@@H](N)CCCNC(=N)N)CSSC[C@@H](C(=O)N[C@H](C(N)=O)[C@@H](C)O)NC(=O)[C@H](Cc2c[nH]c3ccccc23)NC(=O)[C@H](C(C)C)NC1=O [GFc-C35-3/15 (D3R), RCTYTNGNLVWCT] (H-RCTYTNGNLVWCT-NH2; disulfide 2-12) | – |
| 280 µM | a decrease in affinity | CSCC[C@@H]1NC(=O)[C@H](CC(N)=O)NC(=O)CNC(=O)[C@H](CC(N)=O)NC(=O)[C@H]([C@@H](C)O)NC(=O)[C@H](Cc2ccc(O)cc2)NC(=O)[C@H]([C@@H](C)O)NC(=O)[C@@H](NC(=O)[C@@H](N)CC(=O)O)CSSC[C@@H](C(=O)N[C@H](C(N)=O)[C@@H](C)O)NC(=O)[C@H](Cc2c[nH]c3ccccc23)NC(=O)[C@H](C(C)C)NC1=O [GFc-C35-3/15 (L11M), DCTYTNGNMVWCT] (H-DCTYTNGNMVWCT-NH2; disulfide 2-12) | – |
| 260 µM | greatly degreased affinity | CC(C)C[C@@H]1NC(=O)[C@H](CC(N)=O)NC(=O)CNC(=O)[C@H](CC(C)C)NC(=O)[C@H]([C@@H](C)O)NC(=O)[C@H](Cc2ccc(O)cc2)NC(=O)[C@H]([C@@H](C)O)NC(=O)[C@@H](NC(=O)[C@@H](N)CC(=O)O)CSSC[C@@H](C(=O)N[C@H](C(N)=O)[C@@H](C)O)NC(=O)[C@H](Cc2c[nH]c3ccccc23)NC(=O)[C@H](C(C)C)NC1=O [GFc-C35-3/15 (N8L), DCTYTLGNLVWCT] (H-DCTYTLGNLVWCT-NH2; disulfide 2-12) | – |
| 8 µM | greatly increased affinity | CC(C)C[C@@H]1NC(=O)[C@H](CC(N)=O)NC(=O)CNC(=O)[C@H](CCCNC(=N)N)NC(=O)[C@H]([C@@H](C)O)NC(=O)[C@H](Cc2ccc(O)cc2)NC(=O)[C@H]([C@@H](C)O)NC(=O)[C@@H](NC(=O)[C@@H](N)CC(=O)O)CSSC[C@@H](C(=O)N[C@H](C(N)=O)[C@@H](C)O)NC(=O)[C@H](Cc2c[nH]c3ccccc23)NC(=O)[C@H](C(C)C)NC1=O [GFc-C35-3/15 (N8R), DCTYTRGNLVWCT] (H-DCTYTRGNLVWCT-NH2; disulfide 2-12) | fold increase in affinity (fold decrease in Kd value): approximately 18 fold |
| 80 µM | more or less improved affinity | CC(C)C[C@@H]1NC(=O)[C@H](CC(=O)O)NC(=O)CNC(=O)[C@H](CC(N)=O)NC(=O)[C@H]([C@@H](C)O)NC(=O)[C@H](Cc2ccc(O)cc2)NC(=O)[C@H]([C@@H](C)O)NC(=O)[C@@H](NC(=O)[C@@H](N)CC(=O)O)CSSC[C@@H](C(=O)N[C@H](C(N)=O)[C@@H](C)O)NC(=O)[C@H](Cc2c[nH]c3ccccc23)NC(=O)[C@H](C(C)C)NC1=O [GFc-C35-3/15 (N10D), DCTYTNGDLVWCT] (H-DCTYTNGDLVWCT-NH2; disulfide 2-12) | – |
| 61 µM | highest affinity | CC(C)C[C@@H]1NC(=O)[C@H](CC(N)=O)NC(=O)CNC(=O)[C@H](CC(N)=O)NC(=O)[C@H]([C@@H](C)O)NC(=O)[C@H](Cc2ccc(O)cc2)NC(=O)[C@H](C)NC(=O)[C@@H](NC(=O)[C@@H](N)CC(=O)O)CSSC[C@@H](C(=O)N[C@H](C(N)=O)[C@@H](C)O)NC(=O)[C@H](Cc2c[nH]c3ccccc23)NC(=O)[C@H](C(C)C)NC1=O [GFc-C35-3/15 (T5A), DCAYTNGNLVWCT] (H-DCAYTNGNLVWCT-NH2; disulfide 2-12) | – |
| – | – | CC(C)C[C@@H]1NC(=O)[C@H](CCC(=O)O)NC(=O)CNC(=O)[C@H](CCCNC(=N)N)NC(=O)[C@H](Cc2c[nH]cn2)NC(=O)[C@H](Cc2ccc(O)cc2)NC(=O)[C@H](C)NC(=O)[C@@H](NC(=O)[C@@H](N)CC(=O)O)CSSC[C@@H](C(=O)N[C@H](C(N)=O)[C@@H](C)O)NC(=O)[C@H](Cc2c[nH]c3ccccc23)NC(=O)[C@H](C(C)C)NC1=O [GFc-C35-3/15 (T5A, T7H, N8R, N10E), DCAYHRGELVWCT] (H-DCAYHRGELVWCT-NH2; disulfide 2-12) | association rate constant ka [2]: 4.6×10^5 M^−1S^−1; dissociation rate constant kd [2]: 2.5×10^−2 S^−1; Kd [3]: 0.054 µM; fold increase in affinity (fold decrease in Kd value): approximately 2400 fold |
| 0.26 µM | – | CC(C)C[C@@H]1NC(=O)[C@H](CCC(=O)O)NC(=O)CNC(=O)[C@H](CCCNC(=N)N)NC(=O)[C@H](Cc2c[nH]cn2)NC(=O)[C@H](Cc2c[nH]c3ccccc23)NC(=O)[C@H](C)NC(=O)[C@@H](NC(=O)[C@@H](N)CC(=O)O)CSSC[C@@H](C(=O)N[C@H](C(N)=O)[C@@H](C)O)NC(=O)[C@H](Cc2c[nH]c3ccccc23)NC(=O)[C@H](C(C)C)NC1=O [GFc-C35-3/15 (T5A, Y6W, T7H, N8R, N10E), DCAWHRGELVWCT] | association rate constant ka [2]: 5.4×10^4 M^−1S^−1; dissociation rate constant kd [2]: 1.4×10^−2 S^−1; Kd [3]: 0.257 µM; association rate constant ka relative to GFc-C35-3/15 (T5A, T7H, N8R, N10E) (SPR, human IgG): ⅛ |
| 120 µM | – | CC(C)C[C@@H]1NC(=O)[C@H](CC(N)=O)NC(=O)CNC(=O)[C@H](CC(N)=O)NC(=O)[C@H]([C@@H](C)O)NC(=O)[C@H](Cc2ccc(O)cc2)NC(=O)[C@H](CO)NC(=O)[C@@H](NC(=O)[C@@H](N)CC(=O)O)CSSC[C@@H](C(=O)N[C@H](C(N)=O)[C@@H](C)O)NC(=O)[C@H](Cc2c[nH]c3ccccc23)NC(=O)[C@H](C(C)C)NC1=O [GFc-C35-3/15 (T5S), DCSYTNGNLVWCT] (H-DCSYTNGNLVWCT-NH2; disulfide 2-12) | – |
| 3 µM | – | CC(C)C[C@@H]1NC(=O)[C@H](CC(N)=O)NC(=O)CNC(=O)[C@H](CC(N)=O)NC(=O)[C@H](Cc2c[nH]cn2)NC(=O)[C@H](Cc2ccc(O)cc2)NC(=O)[C@H]([C@@H](C)O)NC(=O)[C@@H](NC(=O)[C@@H](N)CC(=O)O)CSSC[C@@H](C(=O)N[C@H](C(N)=O)[C@@H](C)O)NC(=O)[C@H](Cc2c[nH]c3ccccc23)NC(=O)[C@H](C(C)C)NC1=O [GFc-C35-3/15 (T7H), DCTYHNGNLVWCT] (H-DCTYHNGNLVWCT-NH2; disulfide 2-12) | – |
| 1.1 µM | – | CC(C)C[C@@H]1NC(=O)[C@H](CC(N)=O)NC(=O)CNC(=O)[C@H](CCCNC(=N)N)NC(=O)[C@H](Cc2c[nH]cn2)NC(=O)[C@H](Cc2ccc(O)cc2)NC(=O)[C@H]([C@@H](C)O)NC(=O)[C@@H](NC(=O)[C@@H](N)CC(=O)O)CSSC[C@@H](C(=O)N[C@H](C(N)=O)[C@@H](C)O)NC(=O)[C@H](Cc2c[nH]c3ccccc23)NC(=O)[C@H](C(C)C)NC1=O [GFc-C35-3/15 (T7H, N8R), DCTYHRGNLVWCT] (H-DCTYHRGNLVWCT-NH2; disulfide 2-12) | – |
| 0.27 µM | – | CC(C)C[C@@H]1NC(=O)[C@H](CCC(=O)O)NC(=O)CNC(=O)[C@H](CCCNC(=N)N)NC(=O)[C@H](Cc2c[nH]cn2)NC(=O)[C@H](Cc2ccc(O)cc2)NC(=O)[C@H]([C@@H](C)O)NC(=O)[C@@H](NC(=O)[C@@H](N)CC(=O)O)CSSC[C@@H](C(=O)N[C@H](C(N)=O)[C@@H](C)O)NC(=O)[C@H](Cc2c[nH]c3ccccc23)NC(=O)[C@H](C(C)C)NC1=O [GFc-C35-3/15 (T7H, N8R, N10E), DCTYHRGELVWCT] (H-DCTYHRGELVWCT-NH2; disulfide 2-12) | affinity compared with the parent peptide, in words (compared with GFc-C35-3/15 (T7H, N8R)): affinity-enhancing effect |

| Structure (SMILES) | Kd [1] | affinity compared with the original peptide, in words | also measured |
| --- | --- | --- | --- |
| CC(C)C[C@@H]1NC(=O)[C@H](CCC(=O)O)NC(=O)CNC(=O)[C@H](CC(N)=O)NC(=O)[C@H]([C@@H](C)O)NC(=O)[C@H](Cc2ccc(O)cc2)NC(=O)[C@H]([C@@H](C)O)NC(=O)[C@@H](NC(=O)[C@@H](N)CC(=O)O)CSSC[C@@H](C(=O)N[C@H](C(N)=O)[C@@H](C)O)NC(=O)[C@H](Cc2c[nH]c3ccccc23)NC(=O)[C@H](C(C)C)NC1=O [GFc-C35-3/15 (N10E), DCTYTNGELVWCT] (H-DCTYTNGELVWCT-NH2; disulfide 2-12; N-terminus and C-terminus assumed) | 26 µM | higher affinity than the original peptide | – |
| CC(C)C[C@@H]1NC(=O)[C@H](CCC(N)=O)NC(=O)CNC(=O)[C@H](CC(N)=O)NC(=O)[C@H]([C@@H](C)O)NC(=O)[C@H](Cc2ccc(O)cc2)NC(=O)[C@H]([C@@H](C)O)NC(=O)[C@@H](NC(=O)[C@@H](N)CC(=O)O)CSSC[C@@H](C(=O)N[C@H](C(N)=O)[C@@H](C)O)NC(=O)[C@H](Cc2c[nH]c3ccccc23)NC(=O)[C@H](C(C)C)NC1=O [GFc-C35-3/15 (N10Q), DCTYTNGQLVWCT] (H-DCTYTNGQLVWCT-NH2; disulfide 2-12; N-terminus and C-terminus assumed) | 160 µM | almost equal affinity | – |
| CC(C)C[C@@H]1NC(=O)[C@H](CCCNC(=N)N)NC(=O)CNC(=O)[C@H](CC(N)=O)NC(=O)[C@H]([C@@H](C)O)NC(=O)[C@H](Cc2ccc(O)cc2)NC(=O)[C@H]([C@@H](C)O)NC(=O)[C@@H](NC(=O)[C@@H](N)CC(=O)O)CSSC[C@@H](C(=O)N[C@H](C(N)=O)[C@@H](C)O)NC(=O)[C@H](Cc2c[nH]c3ccccc23)NC(=O)[C@H](C(C)C)NC1=O [GFc-C35-3/15 (N10R), DCTYTNGRLVWCT] (H-DCTYTNGRLVWCT-NH2; disulfide 2-12) | 42 µM | higher affinity than the original peptide | – |
